Assay results reported in patent US12667574B2, “Paraxanthine-based bioactive composition and method of use thereof” (PX ING, LLC, priority 2021, dated 2026).

Legend:
dopamine (dopa) [1] = assay: Dopamine concentration (second Example 4); format: in vivo, rats; conditions: for dopamine (dopa) concentration: oral 14 days
Procedure: (§1) Distilled water was provided ad libitum. […] Ltd (Bangalore, India).
(§2) The following HED were used in this study: 50 mg paraxanthine, (ENFINITY™, Ingenious Ingredients, L.P Lewisville, TX, USA; rat dose: 5.141 mg/kg bw/day); 25 mg L-Theanine (rat dose: 2.570 mg/kg bw), and 50 mg paraxanthine plus 25 mg L-Theanine. 0.5% Carboxy Methyl Cellulose sodium was used as vehicle and the test item formulations were prepared daily. […] The last dose on day 14 was given 1 hour prior to testing.

[2] = system: male Swiss Albino Wistar rats; assay: Walter Morris Maze test (Example 3); format: in vivo; conditions: for escape latency: oral 14 days
Procedure: Distilled water was provided ad libitum. […] Ltd (Bangalore, India). […] The last dose on day 14 was given 1 hour prior to testing. The Walter Morris Maze test consisted of a circular pool in a room with geometric shapes on the wall serving as spatial cues. The pool, which is 70 cm in diameter and painted with black color, filled with 13 cm depth of 25±1° C. water. A platform (6 cm diameter) was placed into one quadrant of the pool and submerged 1 cm below the water surface. For the training, all rats were trained to locate the submerged platform in constant location. The training day consisted of four trials. […] The rat was allowed to remain on the platform for 15 seconds before being dried off and later was transferred to a holding cage.

dopamine (dopa) [3] = assay: Dopamine concentration (Example 3); format: in vivo, rats; conditions: for dopamine (dopa) concentration: oral 14 days
Procedure: as §1
(§3) 0.5% Carboxy Methyl Cellulose sodium was used as vehicle and the test item formulations were prepared daily. […] The last dose on day 14 was given 1 hour prior to testing.

[4] = system: male Swiss Albino Wistar rats; assay: Walter Morris Maze test (second Example 4, L-Theanine); format: in vivo; conditions: for escape latency: oral 14 days
Procedure: as §1, §2
The Walter Morris Maze test consisted of a circular pool in a room with geometric shapes on the wall serving as spatial cues. The pool, which is 70 cm in diameter and painted with black color, filled with 13 cm depth of 25±1° C. water. A platform (6 cm diameter) was placed into one quadrant of the pool and submerged 1 cm below the water surface. For the training, all rats were trained to locate the submerged platform in a constant location. The training day consisted of four trials. During training, a rat started at one of four starting points and allowed to swim until it located the platform or until 60 seconds had elapsed. The rat was allowed to remain on the platform for 15 seconds before being dried off and later was transferred to a holding cage. […] The animals were continuously trained 4 times at 4 starting points continued daily for 4 days, the main trial was conducted on the 15th & 16th day and the latency of escaping onto the platform was recorded.

male Swiss Albino mice [5] = assay: Treadmill endurance test (Example 2)
Procedure: Thirty-six 8-week-old male Swiss Albino mice were housed in an animal room at a constant temperature (22±3° C.) and humidity (30%-70%) under a 12:12 h light-dark cycle with standard laboratory diet (Purina 5L79, Rat and Mouse 18% protein; PMI Nutrition International, Brentwood, MO, USA). Distilled water was provided ad libitum. All animal experiments were reviewed and approved by the Institutional Animal Ethical Committee (IAEC) of Radiant Research Services Pvt. Ltd (Bangalore, India). All research was conducted in accordance with the guidelines of the committee for the purpose of control and supervision of experiments on animals.
The dose administered to the mice was calculated using US Food and Drug Administration for human equivalence doses (HED), assuming a human weight of 60 kg. […] 0.5% Carboxy Methyl Cellulose sodium was used as vehicle and the test item formulations were prepared daily. Dosing was conducted via oral gavage using disposable polypropylene syringes with sterilized stainless steel gavage tubes. The food intake and water consumption were monitored daily, and BW was recorded weekly. The last dose on day 28 was given 1 hour prior to testing.
On 28th day of each respective treatment, all animals were subjected to a muscle endurance test. Muscle endurance was accomplished on a motorized treadmill at a low to moderate intensity of 5-50 cm/sec as maximal running speed, an incline of ten degrees and a shock intensity of 0.2 mA, with the belt speed being increased by 5 cm/sec every two minutes until it reaches 50 cm/sec. Animals were subjected to the treadmill test until exhaustion. Distance traveled (cm) was measured as a marker of exercise performance, energy, and endurance.

acetylcholine (Ach) [6] = assay: Acetylcholine concentration (Example 3); format: in vivo, rats; conditions: for acetylcholine (Ach) concentration: oral 14 days
Procedure: as §1, §3

[7] = system: brain derived neuro factor, BDNF; assay: BDNF level, neuroplasticity (Example 3); format: in vivo, rats; conditions: for BDNF: oral 14 days
Procedure: as §1, §3

glutathione (GSH) [8] = assay: Glutathione level (second Example 4); format: in vivo, rats; conditions: for glutathione (GSH) level: oral 14 days
Procedure: as §1, §2

male Swiss Albino mice [9] = assay: Treadmill endurance test (first Example 4, L-Theanine); format: in vivo
Procedure: as §1
The following HED were used in this study: 50 mg paraxanthine, (ENFINITY™ Ingenious Ingredients, L.P Lewisville, TX, USA; mouse dose: 10.275 mg/kg bw/day); 25 mg L-Theanine (mouse dose: 5.137 mg/kg bw), and 50 mg paraxanthine plus 25 mg L-Theanine. 0.5% Carboxy Methyl Cellulose sodium was used as vehicle and the test item formulations were prepared daily.
During the treatment period, exercise training was completed using a motorized treadmill (Exer 3/6, Columbus Instruments international, OH, USA) at a moderate intensity of 20 cm/sec as maximal running speed, an incline of ten degrees and a shock intensity of 0.2 mA, for ten minutes. The speed of the treadmill was manually adjusted by increasing the belt speed by 5 cm/sec every two minutes throughout the total duration of ten minutes. All animals were adapted to this procedure daily 60 minutes after dosing for five days in a week during the treatment period. 1.3. Treadmill Endurance Test
Muscle endurance was accomplished on a motorized treadmill at a low to moderate intensity of 5-50 cm/sec as maximal running speed, an incline of ten degrees and a shock intensity of 0.2 mA, with the belt speed being increased by 5 cm/sec every two minutes until it reaches 50 cm/sec. Animals were subjected to the treadmill test until exhaustion.

glutathione (GSH) [10] = assay: Glutathione level (Example 3); format: in vivo, rats; conditions: for glutathione (GSH) level: oral 14 days
Procedure: as §1, §3

[11] = system: brain derived neuro factor, BDNF; assay: BDNF level, neuroplasticity (second Example 4); format: in vivo, rats; conditions: for BDNF: oral 14 days
Procedure: as §1, §2

acetylcholine (Ach) [12] = assay: Acetylcholine concentration (second Example 4); format: in vivo, rats; conditions: for acetylcholine (Ach) concentration: oral 14 days
Procedure: as §1, §2

Cn1c(=O)[nH]c2ncn(C)c2c1=O [paraxanthine, 1,7-Dimethyl-3H-purine-2,6-dione]
dopamine (dopa) concentration (dopamine (dopa) [1]; old rats): 516.85 ± 4.43 ng/L
increase in dopa compared to L-Theanine (dopamine (dopa) [1]; old rats): 9.3%
increase in dopa compared to placebo (dopamine (dopa) [1]; old rats): 32.7%
dopamine (dopa) concentration (dopamine (dopa) [1]; young rats): 580.22 ± 5.33 ng/L
increase in dopa compared to L-Theanine (dopamine (dopa) [1]; young rats): 9.8%
increase in dopa compared to placebo (dopamine (dopa) [1]; young rats): 23.7%
escape latency ([2]; old rats (16-month-old)): 39.00 ± 1.90 s
decrease of escape latency compared to alpha-GPC ([2]; old rats): 2.1%
decrease of escape latency compared to control ([2]; old rats): 33.7%
decrease of escape latency compared to theobromine ([2]; old rats): 7.9%
decrease of escape latency compared to theophylline ([2]; old rats): 11.0%
escape latency ([2]; young rats (8-week-old)): 32.50 ± 1.38 s
decrease of escape latency compared to alpha-GPC ([2]; young rats): 6.7%
decrease of escape latency compared to control ([2]; young rats): 40%
decrease of escape latency compared to theobromine ([2]; young rats): 13.7%
decrease of escape latency compared to theophylline ([2]; young rats): 14.5%
dopamine (dopa) concentration (dopamine (dopa) [3]; old rats): 516.85 ± 4.43 ng/L
increase in dopa compared to alpha-GPC (dopamine (dopa) [3]; old rats): 2.1%
increase in dopa compared to placebo (dopamine (dopa) [3]; old rats): 32.7%
increase in dopa compared to theobromine (dopamine (dopa) [3]; old rats): 2.8%
increase in dopa compared to theophylline (dopamine (dopa) [3]; old rats): 4.2%
dopamine (dopa) concentration (dopamine (dopa) [3]; young rats): 580.22 ± 5.33 ng/L
increase in dopa compared to alpha-GPC (dopamine (dopa) [3]; young rats): 3.0%
increase in dopa compared to placebo (dopamine (dopa) [3]; young rats): 23.7%
increase in dopa compared to theobromine (dopamine (dopa) [3]; young rats): 5.0%
increase in dopa compared to theophylline (dopamine (dopa) [3]; young rats): 6.7%
escape latency ([4]; old rats (16-month-old)): 39.00 ± 1.90 s
decrease of escape latency compared to L-Theanine ([4]; old rats): 12.7%
decrease of escape latency compared to control ([4]; old rats): 33.7%
escape latency ([4]; young rats (8-week-old)): 32.50 ± 1.38 s
decrease of escape latency compared to L-Theanine ([4]; young rats): 15.2%
decrease of escape latency compared to control ([4]; young rats): 40%
increase of distance travelled compared to alpha-GPC (male Swiss Albino mice [5]; compared to alpha-GPC alone): 4.4%
increase of distance travelled compared to control (male Swiss Albino mice [5]; compared to control (placebo)): 81%
increase of distance travelled compared to theobromine (male Swiss Albino mice [5]; compared to theobromine): 6.3%
increase of distance travelled compared to theophylline (male Swiss Albino mice [5]; compared to theophylline): 9.9%
exercise performance, energy, and endurance (in words) (male Swiss Albino mice [5]; oral 28 days): significant improvements of exercise performance, energy, and endurance
acetylcholine (Ach) concentration (acetylcholine (Ach) [6]; old rats): 59.78±2.61 U/mL
increase in Ach compared to alpha-GPC (acetylcholine (Ach) [6]; old rats): 5.1%
increase in Ach compared to placebo (acetylcholine (Ach) [6]; old rats): 23.2%
increase in Ach compared to theobromine (acetylcholine (Ach) [6]; old rats): 5.5%
increase in Ach compared to theophylline (acetylcholine (Ach) [6]; old rats): 8.0%
acetylcholine (Ach) concentration (acetylcholine (Ach) [6]; young rats): 66.83±2.38 U/mL
increase in Ach compared to alpha-GPC (acetylcholine (Ach) [6]; young rats): 1.4%
increase in Ach compared to placebo (acetylcholine (Ach) [6]; young rats): 23.9%
increase in Ach compared to theobromine (acetylcholine (Ach) [6]; young rats): 4.0%
increase in Ach compared to theophylline (acetylcholine (Ach) [6]; young rats): 4.6%
BDNF ([7]; old rats): 842.68 ± 6.26 pg/mL
increase in BDNF compared to alpha-GPC ([7]; old rats): 1.5%
increase in BDNF compared to placebo ([7]; old rats): 18.1%
increase in BDNF compared to theobromine ([7]; old rats): 3.1%
increase in BDNF compared to theophylline ([7]; old rats): 3.8%
BDNF ([7]; young rats): 917.05 ± 5.21 pg/mL
increase in BDNF compared to alpha-GPC ([7]; young rats): 4.0%
increase in BDNF compared to placebo ([7]; young rats): 22.7%
increase in BDNF compared to theobromine ([7]; young rats): 5.4%
increase in BDNF compared to theophylline ([7]; young rats): 4.9%
glutathione (GSH) level (glutathione (GSH) [8]; old rats): 25.57 ± 0.80 µg/mL
increase in GSH compared to L-Theanine (glutathione (GSH) [8]; old rats): 7.1%
increase in GSH compared to placebo (glutathione (GSH) [8]; old rats): 62.1%
glutathione (GSH) level (glutathione (GSH) [8]; young rats): 32.57 ± 0.84 µg/mL
increase in GSH compared to L-Theanine (glutathione (GSH) [8]; young rats): 2.6%
increase in GSH compared to placebo (glutathione (GSH) [8]; young rats): 64.1%
increase of distance travelled compared to L-Theanine (male Swiss Albino mice [9]; compared to L-Theanine alone): 4.9%
increase of distance travelled compared to control (male Swiss Albino mice [9]; compared to control (placebo)): 81%
exercise performance, energy, and endurance (in words) (male Swiss Albino mice [9]; oral 28 days): significant improvements of exercise performance, energy, and endurance
distance travelled during treadmill exercise (male Swiss Albino mice [9]; oral once daily 28 days, HED 50 mg paraxanthine, 25 mg L-Theanine): 309.50±6.77 m
glutathione (GSH) level (glutathione (GSH) [10]; old rats): 25.57 ± 0.80 µg/mL
increase in GSH compared to alpha-GPC (glutathione (GSH) [10]; old rats): 3.4%
increase in GSH compared to placebo (glutathione (GSH) [10]; old rats): 62.1%
increase in GSH compared to theobromine (glutathione (GSH) [10]; old rats): 4.2%
increase in GSH compared to theophylline (glutathione (GSH) [10]; old rats): 5.5%
glutathione (GSH) level (glutathione (GSH) [10]; young rats): 32.57 ± 0.84 µg/mL
increase in GSH compared to alpha-GPC (glutathione (GSH) [10]; young rats): 2.6%
increase in GSH compared to placebo (glutathione (GSH) [10]; young rats): 64.1%
increase in GSH compared to theobromine (glutathione (GSH) [10]; young rats): 3.9%
increase in GSH compared to theophylline (glutathione (GSH) [10]; young rats): 9.4%
BDNF ([11]; old rats): 842.7 ± 6.26 pg/mL
increase in BDNF compared to L-Theanine ([11]; old rats): 6.8%
increase in BDNF compared to placebo ([11]; old rats): 18.1%
BDNF ([11]; young rats): 917 ± 5.21 pg/mL
increase in BDNF compared to L-Theanine ([11]; young rats): 5.9%
increase in BDNF compared to placebo ([11]; young rats): 22.7%
acetylcholine (Ach) concentration (acetylcholine (Ach) [12]; old rats): 59.78±2.61 U/mL
increase in Ach compared to L-Theanine (acetylcholine (Ach) [12]; old rats): 7.0%
increase in Ach compared to placebo (acetylcholine (Ach) [12]; old rats): 23.3%
acetylcholine (Ach) concentration (acetylcholine (Ach) [12]; young rats): 66.83±2.38 U/mL
increase in Ach compared to L-Theanine (acetylcholine (Ach) [12]; young rats): 6.4%
increase in Ach compared to placebo (acetylcholine (Ach) [12]; young rats): 23.9%

Cn1cnc2c1c(=O)[nH]c(=O)n2C [theobromine, reference compound]
escape latency ([2]; old rats (16-month-old)): 42.33 ± 1.63 s
escape latency ([2]; young rats (8-week-old)): 37.67 ± 2.07 s
dopamine (dopa) concentration (dopamine (dopa) [3]; old rats): 503.03 ± 9.29 ng/L
dopamine (dopa) concentration (dopamine (dopa) [3]; young rats): 552.73 ± 10.42 ng/L
acetylcholine (Ach) concentration (acetylcholine (Ach) [6]; old rats): 56.67±1.32 U/mL
acetylcholine (Ach) concentration (acetylcholine (Ach) [6]; young rats): 64.28±0.88 U/mL
glutathione (GSH) level (glutathione (GSH) [10]; old rats): 24.53 ± 0.54 µg/mL
glutathione (GSH) level (glutathione (GSH) [10]; young rats): 31.28 ± 0.78 µg/mL

Cn1c(=O)c2[nH]cnc2n(C)c1=O [theophylline, reference compound]
escape latency ([2]; old rats (16-month-old)): 43.83 ± 1.47 s
escape latency ([2]; young rats (8-week-old)): 38.00 ± 1.90 s
dopamine (dopa) concentration (dopamine (dopa) [3]; old rats): 495.82 ± 10.86 ng/L
dopamine (dopa) concentration (dopamine (dopa) [3]; young rats): 543.78 ± 6.11 ng/L
acetylcholine (Ach) concentration (acetylcholine (Ach) [6]; old rats): 55.33±1.05 U/mL
acetylcholine (Ach) concentration (acetylcholine (Ach) [6]; young rats): 63.89±1.64 U/mL
glutathione (GSH) level (glutathione (GSH) [10]; old rats): 24.23 ± 0.63 µg/mL
glutathione (GSH) level (glutathione (GSH) [10]; young rats): 29.78 ± 1.07 µg/mL
